The record followed here is patent US20250154109A1, “SODIUM CHANNEL BLOCKING COMPOUNDS, DERIVATIVES THEREOF, AND METHODS OF THEIR USE” (LATIGO BIOTHERAPEUTICS, INC, priority 2022, published 2025).

One series relates to rat plasma protein. As to the kind of experiment: Rat plasma protein binding by equilibrium dialysis. As to conditions: for Rat Plasma, Unbound %: equilibrium dialysis. It is filed as in vitro ADME. The text has this:
(§1) Table 3 presents the human and rat plasma protein binding data (% unbound) for the compounds of Table 2.
(§2) Comparator compounds A, B, C have been previously reported as inhibitors of Na, 1.8 in WO2020/092667. Comparator D, not previously reported, is offered as an additional sulfonamido example.

Another series relates to human plasma protein. Description: Human plasma protein binding by equilibrium dialysis. In kind it is in vitro ADME. The note with it: equilibrium dialysis.
From the text: as §1, §2

Another series addresses human Nav1.8 (Homo sapiens, UniProt Q9Y5Y9). Description: Sophion Qpatch II assay (automated patch clamp). In kind it is cell-based. The note with it: resting state block (TP1 measurement), human Nav1.8 HEK293 cells, read-out: P1 IC50. The procedure: Compounds were tested on recombinant human Nav1.8/01 stably transfected HEK293 (Eurofins, CYL3025, St. Charles, MO) cells using the Qpatch II system (Sophion Bioscience A/S, Ballerup—Denmark), an automated patch clamp device. Cells were cultured at 37° C./5% CO2 in DMEM/F-12 supplemented with 10% fetal bovine serum, lx Non-Essential Amino Acids, and selection antibiotics (0.625 μg/mL Puromycin, 400 μg/mL Geneticin, and 100 μg/mL Hygromycin). One or two days prior to recording, cells were moved to a lower temperature 30° C./5% CO2 incubator to increase surface expression of the channels. On the day of the recordings, cells in culture dishes were washed twice with Ca^2+—Mg^2+ free DPBS and treated with Detachin (Genlantis, San Diego) for 3 minutes and then resuspended in Serum Free Medium (EX-CELL® ACF CHO Medium for Cell Culture (Sigma-Aldrich) supplemented with 0.04 mg/mL soybean trypsin Inhibitor and 25 mM HEPES (all components supplied by Sigma-Aldrich, St. Louis, MO) and allowed to recover for a minimum of 20 minutes in the onboard Qstirrer. All experiments were performed at ambient temperature. Intracellular solution contained (mM): CsCl, 50; CsF, 90; MgCl2, 2; EGTA, 5; HEPES, 10; pH adjusted to 7.2 with CsOH. Extracellular solution contained (mM): NaCl, 137; KCl, 4; CaCl2), 3.8; MgCl2, 1; HEPES, 10; Glucose, 10; pH adjusted to 7.4 with NaOH. 500 nM tetrodotoxin (TTX) was added to the extracellular solution to block endogenous TTX-sensitive sodium currents.
Compounds were tested in an interleaved manner across two cohorts of wells to develop an aggregate 8-point concentration response curve. Final concentrations include 0.5% DMSO and 0.03% pluronic Acid. The concentration range spanned a range from 0.01-300 nM. Compounds were diluted 1:10 with extracellular solution within their respective cohort. (R)-2-(4-fluoro-2-methylphenoxy)-N-(3-(S-methylsulfonimidoyl)phenyl)-5-(trifluoromethyl)nicotinamide served as a positive control while DMSO (0.5% by volume) served as a vehicle control to ascertain assay performance.
Whole cell patch clamp recordings were conducted according to Sophion standard procedure for Qpatch II®. Cells were held at a holding potential of −120 mV. A depolarizing step to 10 mV for 30 ms was applied (TP1 measurement), followed by a hyperpolarization step to −100 mV for 20 ms. Due to instability observed at long depolarized potentials, there were no second TP2 measurements attempted. Inter-sweep interval was 15 sec. Following establishment of the whole-cell configuration in extracellular solution, cells were washed twice in extracellular solution containing 0.5% DMSO and 0.03% pluronic acid to stabilize the baseline current. Compounds were then applied by the Qpatch II system into each well in an ascending manner within cohort and the current was recorded for five minutes for each concentration. Percent of current remaining was determined by taking the average of the last 5 sweeps within each concentration and normalizing to the latest pre-compound saline period. The potency of the compounds was assessed on resting state block (TP1 measurement) only to obtain IC50 values. Wells whose initial sodium current magnitude were below 2 nA or whole cell resistance fell below 100 MQ were excluded from analysis.
Examples 220 to 224, Examples 237 to 257 and Example 259 are assayed using Sophion Qpatch II assay described above.

human Nav1.8, sequence (Q9Y5Y9 whole entry): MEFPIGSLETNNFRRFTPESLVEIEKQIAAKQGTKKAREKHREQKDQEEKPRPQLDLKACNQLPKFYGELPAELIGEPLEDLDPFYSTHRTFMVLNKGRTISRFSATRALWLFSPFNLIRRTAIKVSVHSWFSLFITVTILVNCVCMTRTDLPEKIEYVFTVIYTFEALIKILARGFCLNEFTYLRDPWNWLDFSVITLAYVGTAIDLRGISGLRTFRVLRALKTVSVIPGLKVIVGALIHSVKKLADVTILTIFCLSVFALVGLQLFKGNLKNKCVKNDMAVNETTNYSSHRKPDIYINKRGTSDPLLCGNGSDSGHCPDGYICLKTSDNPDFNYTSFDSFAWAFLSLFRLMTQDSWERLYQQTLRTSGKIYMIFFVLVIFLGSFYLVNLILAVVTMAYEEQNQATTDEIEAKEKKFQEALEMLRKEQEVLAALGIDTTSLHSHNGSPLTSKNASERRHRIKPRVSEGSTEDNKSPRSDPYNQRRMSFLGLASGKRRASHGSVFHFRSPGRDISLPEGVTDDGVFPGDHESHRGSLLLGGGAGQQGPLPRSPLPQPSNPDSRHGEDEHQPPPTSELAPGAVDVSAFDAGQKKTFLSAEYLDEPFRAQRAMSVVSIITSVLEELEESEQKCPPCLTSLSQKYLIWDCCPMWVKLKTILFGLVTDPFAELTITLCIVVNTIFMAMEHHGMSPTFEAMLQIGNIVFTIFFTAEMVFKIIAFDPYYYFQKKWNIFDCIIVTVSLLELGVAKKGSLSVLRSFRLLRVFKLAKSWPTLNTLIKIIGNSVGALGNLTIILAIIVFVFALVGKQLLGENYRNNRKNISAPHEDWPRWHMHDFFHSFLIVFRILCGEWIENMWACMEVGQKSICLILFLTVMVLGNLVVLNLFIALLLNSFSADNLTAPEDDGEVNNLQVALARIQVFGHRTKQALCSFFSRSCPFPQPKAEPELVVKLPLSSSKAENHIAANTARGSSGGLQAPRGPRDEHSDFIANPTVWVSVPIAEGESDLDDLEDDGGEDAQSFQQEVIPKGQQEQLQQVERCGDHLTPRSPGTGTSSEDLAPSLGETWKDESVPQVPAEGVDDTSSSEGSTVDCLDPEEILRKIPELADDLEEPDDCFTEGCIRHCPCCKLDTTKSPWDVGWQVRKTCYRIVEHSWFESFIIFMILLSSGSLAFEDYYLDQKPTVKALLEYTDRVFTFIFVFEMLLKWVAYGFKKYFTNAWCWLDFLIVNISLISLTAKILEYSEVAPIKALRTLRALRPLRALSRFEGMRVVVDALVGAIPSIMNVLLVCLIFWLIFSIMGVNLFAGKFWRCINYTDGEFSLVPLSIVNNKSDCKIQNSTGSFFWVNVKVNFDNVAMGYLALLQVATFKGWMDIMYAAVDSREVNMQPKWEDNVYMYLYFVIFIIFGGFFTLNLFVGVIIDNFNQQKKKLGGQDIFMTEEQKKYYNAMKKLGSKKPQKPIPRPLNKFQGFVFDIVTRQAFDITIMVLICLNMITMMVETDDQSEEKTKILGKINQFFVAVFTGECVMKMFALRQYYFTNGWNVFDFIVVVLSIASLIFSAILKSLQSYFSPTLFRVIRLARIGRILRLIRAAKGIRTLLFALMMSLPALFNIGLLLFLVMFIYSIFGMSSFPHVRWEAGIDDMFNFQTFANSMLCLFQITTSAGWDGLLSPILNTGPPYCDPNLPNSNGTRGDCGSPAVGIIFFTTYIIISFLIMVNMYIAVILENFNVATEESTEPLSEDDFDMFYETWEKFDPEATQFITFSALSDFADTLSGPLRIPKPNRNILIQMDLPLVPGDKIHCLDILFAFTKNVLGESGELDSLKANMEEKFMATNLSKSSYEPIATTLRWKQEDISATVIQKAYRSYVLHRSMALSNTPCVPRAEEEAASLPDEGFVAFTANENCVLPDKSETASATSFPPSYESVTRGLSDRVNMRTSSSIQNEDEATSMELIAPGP

On to `CS(=N)(=O)c1cccc(NC(=O)c2cc(C(F)(F)F)nnc2N2CCCC(F)(F)CC2)c1` (stereo not drawn) [Compound E], for which, in the series with rat plasma protein, the “Rat Plasma, Unbound %” value was determined as 37.8%. Moreover, in the series with rat plasma protein (ratio of unbound % sulfoximine / comparator sulfonamide), the “Fold increase vs Comparator (rat plasma unbound)” value was determined as 2.4×.
Regarding `Cc1nc(N2CCCC(F)(F)CC2)c(C(=O)Nc2ccnc(S(N)(=O)=O)c2)cc1C(F)(F)F` [Compound A, reference compound], in the series on human plasma protein, the “Human Plasma, Unbound %” value amounted to 0.24%. Also, in the series on rat plasma protein, the “Rat Plasma, Unbound %” value is recorded as 0.52%.
On to `C[S@](=N)(=O)c1cc(NC(=O)c2cc(Cl)c(C(F)(F)F)cc2N2CCC(C(F)(F)F)CC2)ccc1F` [Example 246, (S)-5-chloro-N-(4-fluoro-3-(S-methylsulfonimidoyl)phenyl)-4-(trifluoromethyl)-2-(4-(trifluoromethyl)piperidin-1-yl)benzamide], for which the IC50 at human Nav1.8 lay in the range of 50 to 100 nM.
Same read-out and setting: the value for `C[S@@](=N)(=O)c1cc(NC(=O)c2cc(Cl)c(C(F)(F)F)cc2N2CCC(F)(F)CC2)ccc1F` [Example 254, (R)-5-chloro-2-(4,4-difluoropiperidin-1-yl)-N-(4-fluoro-3-(S-methylsulfonimidoyl)phenyl)-4-(trifluoromethyl)benzamide] was 5 to 50 nM.
Turning to `C[S@](=N)(=O)c1cc(NC(=O)c2cc(Cl)c(C(F)(F)F)cc2N2CCC(F)(F)CC2)ccn1` [Example 247, (S)-5-chloro-2-(4,4-difluoropiperidin-1-yl)-N-(2-(S-methylsulfonimidoyl)pyridin-4-yl)-4-(trifluoromethyl)benzamide], the IC50 on human Nav1.8 was 100 to 200 nM.
As to `Cc1c(C(=O)Nc2cccc([S@](C)(=N)=O)c2)c(N2CCCC(F)(F)CC2)nc(C2CC2)c1C(F)(F)F` [Example 224, (R)-6-cyclopropyl-2-(4,4-difluoroazepan-1-yl)-4-methyl-N-(3-(S-methylsulfonimidoyl)phenyl)-5-(trifluoromethyl)nicotinamide], on human Nav1.8, the IC50 is 5 to 50 nM.
As to `C[S@](=N)(=O)c1cc(NC(=O)c2cc(Cl)c(C(F)(F)F)cc2N2CCC(F)(F)CC2)ccc1F` [Example 249, (S)-5-chloro-2-(4,4-difluoropiperidin-1-yl)-N-(4-fluoro-3-(S-methylsulfonimidoyl)phenyl)-4-(trifluoromethyl)benzamide], the IC50 at human Nav1.8 lay in the range of 50 to 100 nM.
As to `NC(=O)[C@H]1C[C@H](NC(=O)c2cc(Cl)c(C(F)(F)F)cc2N2CCCC(F)(F)CC2)C1` [Example 252, N-((trans)-3-carbamoylcyclobutyl)-5-chloro-2-(4,4-difluoroazepan-1-yl)-4-(trifluoromethyl)benzamide], at human Nav1.8, the IC50 was in the range of 50 to 100 nM.
As for `C[S@@](=N)(=O)c1cccc(NC(=O)c2cc(Cl)c(C(F)(F)F)cc2N2CCC(F)(F)CC2)c1` [Example 222, (R)-5-chloro-2-(4,4-difluoropiperidin-1-yl)-N-(3-(S-methylsulfonimidoyl)phenyl)-4-(trifluoromethyl)benzamide], the IC50 at human Nav1.8 lay in the range of 5 to 50 nM.
As to `Cc1c(C(F)(F)F)cnc(N2CCO[C@@H](C(F)(F)F)C2)c1C(=O)Nc1cccc([S@](C)(=N)=O)c1` [Example 238, 4-methyl-N-(3-((R)—S-methylsulfonimidoyl)phenyl)-5-(trifluoromethyl)-2-((R)-2-(trifluoromethyl)morpholino)nicotinamide], the IC50 on human Nav1.8 was over 200 nM.
For the molecule `Cc1c(C(=O)Nc2ccnc([S@@](C)(=N)=O)c2)c(N2CCCC(F)(F)CC2)nc(C2CC2)c1C(F)(F)F` [Example 221, (S)-6-cyclopropyl-2-(4,4-difluoroazepan-1-yl)-4-methyl-N-(2-(S-methylsulfonimidoyl)pyridin-4-yl)-5-(trifluoromethyl)nicotinamide], the IC50 on human Nav1.8 was 5 to 50 nM.
As to `Cc1c(C(=O)Nc2ccnc([S@](C)(=N)=O)c2)c(N2CCCC(F)(F)CC2)cc(C2CC2)c1C(F)(F)F` [Example 250, (R)-4-cyclopropyl-6-(4,4-difluoroazepan-1-yl)-2-methyl-N-(2-(S-methylsulfonimidoyl)pyridin-4-yl)-3-(trifluoromethyl)benzamide], on human Nav1.8, the IC50 was at most 5 nM.
`Cc1c(C(F)(F)F)cnc(N2CCO[C@H](C(F)(F)F)C2)c1C(=O)Nc1cccc([S@](C)(=N)=O)c1` [Example 240, 4-methyl-N-(3-((R)—S-methylsulfonimidoyl)phenyl)-5-(trifluoromethyl)-2-((S)-2-(trifluoromethyl)morpholino)nicotinamide]: the IC50 on human Nav1.8 is 5 to 50 nM.
Turning to `Cc1c(C(F)(F)F)cnc(N2CCC(F)(F)CC2)c1C(=O)Nc1cccc([S@](C)(=N)=O)c1` [Example 241, (R)-2-(4,4-difluoropiperidin-1-yl)-4-methyl-N-(3-(S-methylsulfonimidoyl)phenyl)-5-(trifluoromethyl)nicotinamide], the IC50 on human Nav1.8 was in the range of 5 to 50 nM.
Take `C[S@@](=N)(=O)c1cc(NC(=O)c2cc(Cl)c(C(F)(F)F)cc2N2CCC(F)(F)CC2)ccn1` [Example 248, (R)-5-chloro-2-(4,4-difluoropiperidin-1-yl)-N-(2-(S-methylsulfonimidoyl)pyridin-4-yl)-4-(trifluoromethyl)benzamide]: the IC50 at human Nav1.8 lay in the range of 50 to 100 nM.
Still for that read-out and setting: the value for `C[S@@](=N)(=O)c1cc(NC(=O)c2cc(Cl)c(C(F)(F)F)cc2N2CCC(C(F)(F)F)CC2)ccn1` [Example 243, (R)-5-chloro-N-(2-(S-methylsulfonimidoyl)pyridin-4-yl)-4-(trifluoromethyl)-2-(4-(trifluoromethyl)piperidin-1-yl)benzamide] was 50 to 100 nM.
As for `Cc1c(C(F)(F)F)cnc(N2CCC(C(F)(F)F)CC2)c1C(=O)Nc1cccc([S@](C)(=N)=O)c1` [Example 242, (R)-4-methyl-N-(3-(S-methylsulfonimidoyl)phenyl)-5-(trifluoromethyl)-2-(4-(trifluoromethyl)piperidin-1-yl)nicotinamide], the IC50 on human Nav1.8 is 5 to 50 nM.
Same read-out and setting: the value for `Cc1c(C(F)(F)F)cnc(N2CCO[C@H](C(F)(F)F)C2)c1C(=O)Nc1ccnc([S@](C)(=N)=O)c1` [Example 237, 4-methyl-N-(2-((R)—S-methylsulfonimidoyl)pyridin-4-yl)-5-(trifluoromethyl)-2-((S)-2-(trifluoromethyl)morpholino)nicotinamide] was 50 to 100 nM; that for `Cc1c(C(F)(F)F)cnc(N2CCCC(F)(F)CC2)c1C(=O)N[C@H]1C[C@@H](C(N)=O)C1` [Example 259, N-((cis)-3-carbamoylcyclobutyl)-2-(4,4-difluoroazepan-1-yl)-4-methyl-5-(trifluoromethyl)nicotinamide] was 50 to 100 nM.
As for `Cc1c(C(F)(F)F)cnc(N2CCO[C@@H](C(F)(F)F)C2)c1C(=O)Nc1ccnc([S@](C)(=N)=O)c1` [Example 239, 4-methyl-N-(2-((R)—S-methylsulfonimidoyl)pyridin-4-yl)-5-(trifluoromethyl)-2-((R)-2-(trifluoromethyl)morpholino)nicotinamide], the IC50 on human Nav1.8 is over 200 nM.
Take `Cc1c(C(=O)Nc2cccc([S@@](C)(=N)=O)c2)c(N2CCCC(F)(F)CC2)nc(C2CC2)c1C(F)(F)F` [Example 223, (S)-6-cyclopropyl-2-(4,4-difluoroazepan-1-yl)-4-methyl-N-(3-(S-methylsulfonimidoyl)phenyl)-5-(trifluoromethyl)nicotinamide]: the IC50 at human Nav1.8 was at most 5 nM.
On the same count and under the same terms, the value for `C[S@](=N)(=O)c1cccc(NC(=O)c2cc(Cl)c(C(F)(F)F)cc2N2CCC(C(F)(F)F)CC2)c1` [Example 251, (S)-5-chloro-N-(3-(S-methylsulfonimidoyl)phenyl)-4-(trifluoromethyl)-2-(4-(trifluoromethyl)piperidin-1-yl)benzamide] was 50 to 100 nM.
